Source: patent publication US20130216614A1, “IMMUNOGENIC COMPOSITIONS AND METHODS FOR TREATING NUEROLOGIC DISORDERS” (Glaxosmithkline Biologicals S.A., priority 2010, published 2013)

Tests used:
CD11b+ monocytes = experiment: Peripheral blood CD11b+ monocyte number by flow cytometry after single injection; type: in vivo, C57BL/6 mice; conditions: for CD11b+ monocyte number in peripheral blood: 24 hrs after single injection; for circulating monocytes in peripheral blood: intramuscular injection; for circulating monocytes in peripheral blood / total monocytes in the peripheral blood: 24 hrs, normal count 5%; for total monocytes in the peripheral blood: intraperitoneal route
Description: Monocytes are the peripheral blood precursor cells of microglia (Rezaie, P., et al 1999. Microglia in the human fetal spinal cord—patterns of distribution, morphology and phenotype. Brain Res. Dev. Brain Res. 115:71-81: Mildner et al Nat Neurosci. 2007 December; 10(12):1544-53. Epub 2007 Nov. 18. PubMed PMID: 18026096.). During embryonic development, microglia populate the CNS from myeloid lineage precursors in the bone marrow and these cells are circulating in the peripheral blood before becoming macrophages in their infiltrating tissues, such as microglia are for the brain. Markers such as CD11b and Ly6C are immunologicals markers that are present on peripheral blood monocytes and persist when they are infiltrating the brain (Mildner et al., 2007 infra, Lebson L, et al Trafficking CD11b-positive blood cells deliver therapeutic genes to the brain ofamyloid-depositing transgenic mice. J Neurosci. 2010 Jul. 21; 30(29):9651-8. PubMed PMID: 20660248.). To investigate whether 3D MPL containing adjuvants and s are contributing to induce the number of monocytes in the peripheral blood, we have performed a single injection of those molecules and measure after 24 hrs (post injection) the CD11b+ monocytes number by a flow cytometry method (Mildner A, et al Microglia in the adult brain arise from Ly-6ChiCCR2+ monocytes only under defined host conditions. Nat Neurosci. 2007 December; 10(12):1544-53. Epub 2007 Nov. 18. PubMed PMID: 18026096). As described in FIG. 3, we are showing an increase of CD11b+ monocyte number having that phenotypic composition of markers :CD11b+, lineage cocktail negative (CD3-, B220-, NK1.1-,Ly6C-) after the injection of 3D MPL or AS15 or AS01B or CRX527 or CRX601. Comparing to a normal monocyte number count in the peripheral blood, which is 5% whereas the intramuscular (i.m.) injection of AS01B, and AS15 are showing an increase of the number of circulating monocytes to up to 20%. Moreover, the injection of 3D MPL or CRX601 or CRX601 using the intraperitoneal route is also showing a 22% of total monocytes in the peripheral blood.
Peripheral blood was drawn from C57BL/6 mice via cardiac puncture with lithium-heparin as anticoagulant, 24-Hour after injection of the TLR adjuvants. Red blood cell lysis was performed twice on pooled blood with Ammonium Chloride-based Buffer (Sigma, Steinheim, Germany) and cells were counted with the EasyCount™ System (Immunicon). After one washing step, 500,000 cells were incubated with Rat anti-Mouse CD16/CD32 (BD Fc Block™ by BD Biosciences) for 10 min. on ice and cells were further incubated for 30 min. with a combination of the following directly conjugated antibodies at their pre-determined optimal concentration as described by Mildner et al., 2007): PerCP labeled-Streptavidin, PE-Hamster anti-Mouse CD3, Rat anti-Mouse CD45R/B220, Rat anti-Mouse Ly-6G, Mouse anti-Mouse NK1.1 APC-conjugated Rat anti-Mouse CD11b, PE-Cy7-conjugated Hamster anti-Mouse CD11c, FITC-Rat Anti-Mouse Ly-6C (all from BD Biosciences) and Pacific Blue™ Rat anti-Mouse CD62L (BioLegend, San Diego, Calif.). Cells were finally washed three times and fixed for 15 min. with a 2% paraformaldehyde solution in PBS. Fluorescence minus one (FMO) controls were always included in the assays for fluorescent compensation setting.
Samples were acquired on a flow cytometer (BD FACSCanto II) and data analyzed with the FACSDiva software (BD Biosciences).
Monocytes were identified by their Side/Forward scatter properties and gated as CD3-/CD45R/B220-/Ly-6G-/NK1.1-(Lineage-)/CD11b+ cells. CD11b+ monocytes frequency was reported as a percentage of the total cells excluding debris.
24-Hour after injection of the TLR adjuvants, peripheral blood was drawn from C57BL/6 mice via cardiac puncture with lithium-heparin as anticoagulant. Red blood cell lysis was performed twice on pooled blood with Ammonium Chloride-based Buffer (Sigma, Steinheim, Germany) and cells were counted with the EasyCount™ System (Immunicon). […]

APPSwe/PS1 mice = experiment: T-water maze; type: in vivo, mouse; conditions: for spatial memory / behaviour in T water maze compared to non-treated mice: twelve weekly injections, CRX 20 μg i.p., 3D MPL 50 μg i.p., AS01B 1/10th human dose i.m.; for T maze reversal test compared with group 1 (PBS): 12x weekly
Procedure: Five groups of APPSwe/PS1 mice have received one a week for a period of 12 weeks the following treatment: • Gr1: APPSwe/PS1+NaCl 0.9% n(=20), i.p. injections • Gr4: APPSwe/PS1+CRX527 (20 μg/mouse, 130 μl, n=10), i.p. injections • Gr5: APPSwe/PS1+CRX601 (20 μg/mouse, 130 μl, n=10), i.p. injections • Gr6: APPSwe/PS1+3D MPL (50 μg/mouse, 130 μl, n=10), i.p. injections • Gr8 APPSwe/PS1+AS15 • Gr9: APPSwe/PS1+AS01B ( 1/10th of human dose μg/kg, 50 μl, n=10), i.m. injections
Mice were tested during the “light on” phase of the day. Behavioral experimenter was blinded to the genetic and treatment status of animals. To assess hippocampal-dependent spatial learning and memory, mice were trained in the T-water maze task. In this paradigm, we evaluate the mouse's ability to remember the spatial location of submerged platform. The T-maze apparatus (length of stem, 64 cm; length of arms, 30 cm; width, 12 cm; height of walls, 16 cm) was made of clear fiberglass and filled with water (23±1° C.) at a height of 12 cm. A platform (11×11 cm) was placed at the end of the target arm and was submerged 1 cm below the surface. The acquisition phase allows to evaluate animals for left-right spatial learning. During the first two trials, platforms were placed on each arms of the maze to test the spontaneous turning preference of the mouse. After these two trials, the least chosen arm was reinforced by the escape platform. The mice were placed in the stem of the T-maze and choose to swim either left or right until they found the submerged platform and escape to it, to a maximum of 60 s. After reaching the platform, the mice remained on it for 20 s and then were immediately placed back in the maze. […] Repeated trials were presented on the same day up to a maximum of 48 trials. A rest period of at least 10-15 min intervened between each block of 10 trials. A mouse was considered to have learned the task when it made no errors in a block of five consecutive trials. The reversal learning phase was then conducted 48 h later.
During this phase, the same protocol was repeated, except that the mice were trained to find the escape platform on the opposite side to that on which they had learned on acquisition phase. The number of trials to reach the criterion (five of five correct choices made on consecutive trials) was measured as well as the latency to find the escape platform.
Further experiments were carried out using the following groups.

Row | Compound | CD11b+ monocyte number in peripheral blood (CD11b+ monocytes) | spatial memory / behaviour in T water maze compared to non-treated mice (APPSwe/PS1 mice) | spatial memory / behaviour in T water maze compared to non-treated mice (APPSwe/PS1 mice; listed as CRX 527) | monocyte count effect (CD11b+ monocytes; 20 μg dose i.m.) | circulating monocytes in peripheral blood (CD11b+ monocytes) | total monocytes in the peripheral blood (CD11b+ monocytes) | amount enough to trigger an increase of the monocyte count (CD11b+ monocytes; single i.m. injection, six doses 0.2 to 20 μg) | T maze reversal test compared with group 1 (PBS) (APPSwe/PS1 mice; group 3: i.m. 2 ug per mouse) | spatial memory / behaviour in T water maze compared to non-treated mice (APPSwe/PS1 mice; listed as CRX 601) | CD11b+ monocyte in the peripheral blood (CD11b+ monocytes; 5 μg dose i.m., 24 hours) | peripheral blood monocyte count (CD11b+ monocytes; 50 μg dose i.m., 24 hours) | T maze reversal test compared with group 1 (PBS) (APPSwe/PS1 mice; group 9: intra peritoneal 50 ug per mouse) | T maze reversal test compared with group 1 (PBS) (APPSwe/PS1 mice; group 10: i.m. 5 ug per mouse) | spatial memory / behaviour in T water maze compared to non-treated mice (APPSwe/PS1 mice; listed as 3D-MPL)
1 | CCCCCCCCCCC[C@H](CC(=O)N[C@H]1[C@H](OC[C@H](NC(=O)C[C@@H](CCCCCCCCCCC)OC(=O)CCCCCCCCC)C(=O)O)O[C@H](CO)[C@@H](OP(=O)(O)O)[C@@H]1OC(=O)C[C@@H](CCCCCCCCCCC)OC(=O)CCCCCCCCC)OC(=O)CCCCCCCCC [CRX527] | increase | spatial memory improvement | significant improvements |  |  |  |  |  |  |  |  |  |  | 
2 | CCCCCCCCCCC[C@H](CC(=O)N[C@H]1[C@H](OC[C@H](NC(=O)C[C@@H](CCCCCCCCCCC)OCCCCCCCCCC)C(=O)O)O[C@H](CO)[C@@H](OP(=O)(O)O)[C@@H]1OC(=O)C[C@@H](CCCCCCCCCCC)OCCCCCCCCCC)OCCCCCCCCCC [CRX601] | increase | spatial memory improvement |  | down modulated | up to 12% | 22% | 1 µg | significantly improved | significant improvements |  |  |  |  | 
3 | 3-O-desacyl-4′-monophosphoryl lipid A [3D MPL] | increase | spatial memory improvement |  |  | ≤ 13% | 22% |  |  |  | double increase | drop | significantly improved | significantly improved | significant improvements
